pKi: −log10 of the molar value.

The target of the test is T1, CRTH2 receptor (Homo sapiens, UniProt Q9Y5Y4).
T1 construct: expressed in transfected cells; host or cells: HEK (human embryonic kidney) cells, membrane preparation
T1 sequence (Q9Y5Y4 1-395): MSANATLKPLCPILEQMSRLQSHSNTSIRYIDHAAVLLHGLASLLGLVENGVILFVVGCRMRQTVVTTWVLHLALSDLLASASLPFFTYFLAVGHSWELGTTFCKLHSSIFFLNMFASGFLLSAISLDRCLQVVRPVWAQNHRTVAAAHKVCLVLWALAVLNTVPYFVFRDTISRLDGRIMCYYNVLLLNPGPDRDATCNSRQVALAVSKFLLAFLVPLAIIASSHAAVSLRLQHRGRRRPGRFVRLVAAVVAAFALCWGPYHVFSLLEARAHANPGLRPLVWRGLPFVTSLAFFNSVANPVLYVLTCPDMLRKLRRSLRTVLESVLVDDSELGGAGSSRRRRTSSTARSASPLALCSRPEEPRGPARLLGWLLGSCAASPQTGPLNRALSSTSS
Put plainly: CRTH2 radioligand binding assay ([3H]-PGD2 displacement, SPA). Conditions: HEK cell membranes expressing the CRTH2 receptor, 1 nM [3H]-PGD2; Ki from IC50 by Cheng-Prusoff equation. The method, then:
Compounds of the invention were tested using the following biological test method to determine their ability to displace PGD2 from the CRTH2 receptor.
CRTH2 Radioligand Binding Assay
The receptor binding assay is performed in a final volume of 200 μL binding buffer [10 mM BES (pH 7.4), 1 mM EDTA, 10 mM manganese chloride, 0.01% BSA] and 1 nM [^3H]-PGD2 (Amersham Biosciences UK Ltd). Ligands are added in assay buffer containing a constant amount of DMSO (1% by volume). Total binding is determined using 1% by volume of DMSO in assay buffer and non-specific binding is determined using 10 μM of unlabeled PGD2 (Sigma). Human embryonic kidney (HEK) cell membranes (3.5 μg) expressing the CRTH2 receptor are incubated with 1.5 mg wheatgerm agglutinin SPA beads and 1 nM [^3H]-PGD2 (Amersham Biosciences UK Ltd) and the mixture incubated for 3 hours at room temperature. Bound [^3H]-PGD2 is detected using a Microbeta TRILUX liquid scintillation counter (Perkin Elmer). Compound IC50 value is determined using a 6-point dose response curve in duplicate with a semi-log compound dilution series. IC50 calculations are performed using Excel and XLf it (Microsoft), and this value is used to determine a Ki value for the test compound using the Cheng-Prusoff equation.

The compound `Cc1c(CC(=O)O)c2cc(F)ccc2n1Cc1ccccc1S(=O)(=O)c1ccc(F)cc1` [Example 1, {5-fluoro-1-[2-(4-fluorobenzenesulfonyl)benzyl]-2-methyl-1H-indol-3-yl}acetic acid] showed a negative logarithm of the Ki (pKi) of 7.18.

The term pKi denotes −log10 of the Ki, conventionally taken in molar units. A higher pKi goes with a small Ki.

Source of the values: patent publication US20110060026A1, “Indoles Active on CRTH2 Receptor” (priority 2008, published 2011).
